Measured values as given in the supplement of paper PMC10307832.

Experiments:
Assay in all cases: relative viability (nuclei count vs DMSO), 5 days (fraction); higher = more cells survive
Carfilzomib + Foretinib = compound: CC(C)C[C@H](NC(=O)[C@H](CCc1ccccc1)NC(=O)CN1CCOCC1)C(=O)N[C@@H](Cc1ccccc1)C(=O)N[C@@H](CC(C)C)C(=O)[C@@]1(C)CO1 [Carfilzomib] + COc1cc2c(Oc3ccc(NC(=O)C4(C(=O)Nc5ccc(F)cc5)CC4)cc3F)ccnc2cc1OCCCN1CCOCC1 [Foretinib] (partner 0.25 µM)
Procedure, shortened: (§1)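 For relative viability, nuclei counts in treated wells were divided by those in vehicle wells. Lung cancer cell lines had been pin-tool dosed in 1536-well plates the day after seeding and cultured for 5 days, then fixed and stained in one step (final 0.05% Triton X-100, 1% formaldehyde, 1 ug/ml Hoechst) and imaged at 4×. Doses were one drug alone or a fixed anchor-drug dose plus five library-drug doses (not always all listed) in √10 steps, and values are duplicate-plate medians.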

Crizotinib + Trametinib = compound: C[C@@H](Oc1cc(-c2cnn(C3CCNCC3)c2)cnc1N)c1c(Cl)ccc(F)c1Cl [Crizotinib] + CC(=O)Nc1cccc(-n2c(=O)n(C3CC3)c(=O)c3c(Nc4ccc(I)cc4F)n(C)c(=O)c(C)c32)c1 [Trametinib] (partner 0.02 µM)
Procedure, shortened: as §1

Crizotinib + Luminespib = compound: C[C@@H](Oc1cc(-c2cnn(C3CCNCC3)c2)cnc1N)c1c(Cl)ccc(F)c1Cl [Crizotinib] + CCNC(=O)c1noc(-c2cc(C(C)C)c(O)cc2O)c1-c1ccc(CN2CCOCC2)cc1 [Luminespib] (partner 0.01 µM)
Procedure, shortened: as §1

Crizotinib + AZD7762 = compound: C[C@@H](Oc1cc(-c2cnn(C3CCNCC3)c2)cnc1N)c1c(Cl)ccc(F)c1Cl [Crizotinib] + NC(=O)Nc1cc(-c2cccc(F)c2)sc1C(=O)N[C@H]1CCCNC1 [AZD7762] (partner 0.2 µM)
Procedure, shortened: as §1

Cell Line | relative viability (Carfilzomib + Foretinib; first compound 0.001 µM) | relative viability (Carfilzomib + Foretinib; first compound 0.003162 µM) | relative viability (Carfilzomib + Foretinib; first compound 0.01 µM) | relative viability (Carfilzomib + Foretinib; first compound 0.03162 µM) | relative viability (Carfilzomib + Foretinib; first compound 0.1 µM) | relative viability (Crizotinib + Trametinib; first compound 0.01 µM) | relative viability (Crizotinib + Trametinib; first compound 0.03162 µM) | relative viability (Crizotinib + Trametinib; first compound 0.1 µM) | relative viability (Crizotinib + Trametinib; first compound 0.3162 µM) | relative viability (Crizotinib + Trametinib; first compound 1 µM) | relative viability (Crizotinib + Luminespib; first compound 0.01 µM) | relative viability (Crizotinib + Luminespib; first compound 0.03162 µM) | relative viability (Crizotinib + Luminespib; first compound 0.3162 µM) | relative viability (Crizotinib + AZD7762; first compound 0.01 µM) | relative viability (Crizotinib + AZD7762; first compound 0.03162 µM) | relative viability (Crizotinib + AZD7762; first compound 0.1 µM) | relative viability (Crizotinib + AZD7762; first compound 0.3162 µM) | relative viability (Crizotinib + AZD7762; first compound 1 µM) | relative viability (Crizotinib + Luminespib; first compound 0.1 µM) | relative viability (Crizotinib + Luminespib; first compound 1 µM)
201T | 1.13 | 1.14 | 1.16 | 1.02 | 0.29 | 0.678 | 0.706 | 0.747 | 0.72 | 0.754 | 1.01 | 1.07 | 1.06 | 0.6 | 0.628 | 0.558 | 0.575 | 0.716 |  | 
A549 | 0.86 | 0.966 | 0.946 | 0.0732 | 0.0218 |  |  |  |  |  |  |  |  |  |  |  |  |  |  | 
A-427 | 1.02 | 1.13 | 1.09 | 0.474 | 0.121 | 0.717 | 0.771 | 0.724 |  | 0.78 | 0.91 | 0.904 |  | 0.709 | 0.766 | 0.773 |  | 0.684 | 0.946 | 0.963
ABC-1 | 0.912 | 0.815 | 0.292 | 0.17 | 0.224 |  |  |  |  |  |  | 0.865 | 0.496 | 0.902 | 0.848 | 0.695 | 0.671 | 1.34 | 0.628 | 
BEN | 0.575 | 0.69 | 0.577 | 0.577 | 0.339 |  | 0.982 | 0.948 | 1.15 | 1.17 | 0.504 | 0.301 | 0.198 | 0.726 | 0.645 | 0.671 | 0.586 | 0.679 | 0.38 | 0.549
CAL-12T | 1.08 | 1.1 | 1.06 | 0.807 | 0.103 | 0.268 | 0.413 | 0.32 | 0.393 | 0.374 | 0.297 | 0.339 |  | 0.527 | 0.679 | 0.624 | 0.635 | 0.694 | 0.232 | 0.201
COR-L23 | 0.991 | 1.16 | 0.996 | 0.196 | 0.0831 | 0.567 | 0.605 | 0.563 | 0.525 | 0.633 | 0.655 | 0.665 | 0.775 |  |  |  |  |  | 0.656 | 0.687
COR-L 105 | 1.31 | 1.13 | 1.05 | 0.779 | 0.26 | 0.426 | 0.463 | 0.413 | 0.41 | 0.43 | 0.686 | 0.859 | 0.804 |  |  |  |  |  | 0.712 | 0.769
Calu-6 | 0.889 | 0.933 | 0.842 | 0.127 | 0.0591 |  |  |  |  |  |  |  |  |  |  |  |  |  |  | 
ChaGo-K-1 | 0.941 | 0.991 | 0.859 | 0.62 | 0.172 | 0.867 | 0.92 | 0.876 | 0.825 | 0.915 | 0.438 | 0.546 | 0.526 | 0.83 | 0.841 | 0.839 | 0.711 | 0.905 | 0.517 | 0.747
EBC-1 | 0.0996 | 0.124 | 0.121 | 0.0586 | 0.0611 |  |  |  |  |  |  |  |  |  |  |  |  |  |  | 
EKVX | 0.51 | 0.945 | 1.24 | 0.309 | 0.765 | 0.342 | 0.367 | 0.347 | 0.298 | 0.374 | 0.953 |  | 0.939 | 0.67 | 0.742 | 0.647 | 0.685 | 0.726 | 0.947 | 0.865
EMC-BAC-2 | 1.02 | 1.08 | 1.12 | 0.975 | 0.221 | 0.865 | 0.803 | 0.914 |  | 0.893 | 1.12 | 1.25 | 1.16 | 1.07 | 1.1 | 1.05 |  | 1.08 | 1.09 | 1.22
EPLC-272H | 0.901 | 0.764 | 0.601 | 0.0828 | 0.0461 | 0.277 | 0.281 | 0.299 |  | 0.307 | 0.236 | 0.343 | 0.262 | 0.209 | 0.19 | 0.263 |  | 0.35 | 0.197 | 0.577
H3255 | 0.876 | 0.952 | 0.939 | 0.815 | 0.327 | 0.557 | 0.666 | 0.602 | 0.652 | 0.479 | 0.928 | 0.971 | 0.743 | 0.833 | 0.88 | 0.819 |  | 0.923 | 0.831 | 
HARA | 0.93 | 0.963 | 1.1 | 0.0689 | 0.0561 | 0.646 | 0.525 | 0.958 | 0.976 | 0.564 | 0.819 | 0.77 |  | 0.216 | 0.274 | 0.679 | 0.382 | 0.516 | 0.708 | 0.682
HCC-15 | 0.96 | 1.19 | 1.12 | 0.589 | 0.149 | 0.396 | 0.346 | 0.38 |  |  | 0.382 | 0.409 |  | 1.07 | 0.721 | 1.2 |  | 1.14 | 0.443 | 0.334
HCC-44 |  |  |  |  |  | 0.933 | 1.04 | 1.03 | 1.15 | 1.04 | 1.03 | 0.99 | 1.05 | 0.971 | 0.997 | 1.04 | 0.936 | 1.02 | 0.988 | 1.06
HCC-78 | 0.541 | 0.576 | 0.581 | 0.571 | 0.322 | 0.631 | 0.873 | 0.723 | 0.706 | 0.909 |  |  |  | 0.657 | 0.686 | 0.618 | 0.572 | 0.487 |  | 
HCC-366 | 0.933 | 0.963 | 0.916 | 0.648 | 0.121 | 0.342 | 0.388 | 0.367 |  | 0.322 |  |  |  | 0.239 | 0.324 | 0.309 |  | 0.289 |  | 
